These results are taken from PubChem BioAssay AID330 (DTP/NCI, 2004).

This assay deals with P388 leukemia ip, CD2F1 mice, survival T/C. Briefly: NCI In Vivo Anticancer Drug Screen. Data for tumor model P388 Leukemia (intraperitoneal) in CD2F1 (CDF1) mice. As to conditions: endpoint: median survival time, higher = longer survival. In short, it runs like this: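 Mice carrying the transplanted tumor received test compound or vehicle. Survival was recorded in each group, and the value is the treated-group measurement divided by that of the vehicle-treated control group.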

Where [1] appears, read: dose: 50.0 mg/kg/injection, schedule: Q01DX005 (ip), vehicle: saline.

Each structure is given as a SMILES string. Where “and” joins values, the source holds several entries; their conditions need not be identical. Equal entries are not always repeated. Inconclusive results and toxic doses are left out.

Consider `Nc1nnc2nc(C3(c4nc5nnc(N)n5[nH]c4=O)CCCC3=O)c(=O)[nH]n12`, for which the T/C under setting [1] is 106 % of control; the T/C (dose: 100.0 mg/kg/injection, schedule: Q01DX005 (ip), vehicle: saline) is 94 % of control; the T/C (dose: 200.0 mg/kg/injection, schedule: Q01DX005 (ip), vehicle: saline) was 106 % of control.
On to `O=C1c2c(O)ccc(O)c2C(=O)c2c(NCCCO)ccc(NCCCO)c21`, for which the T/C (dose: 0.62 mg/kg/injection, schedule: Q01DX009 (ip), vehicle: acid diluted with saline) was 110 % of control; the T/C (dose: 1.25 mg/kg/injection, schedule: Q01DX009 (ip), vehicle: acid diluted with saline) was 103 % of control; the T/C (dose: 2.5 mg/kg/injection, schedule: Q01DX009 (ip), vehicle: acid diluted with saline) was 100 % of control; the T/C (dose: 5.0 mg/kg/injection, schedule: Q01DX009 (ip), vehicle: acid diluted with saline) is 107 % of control; the T/C (dose: 10.0 mg/kg/injection, schedule: Q01DX009 (ip), vehicle: acid diluted with saline) is 98 % of control; the T/C (dose: 20.0 mg/kg/injection, schedule: Q01DX009 (ip), vehicle: acid diluted with saline) is 100 % of control. Besides, the T/C was 100 % of control (dose: 40.0 mg/kg/injection, schedule: Q01DX009 (ip), vehicle: acid diluted with saline) and 91 % of control (dose: 80.0 mg/kg/injection, schedule: Q01DX009 (ip), vehicle: acid diluted with saline).
Take `CN(C)C1C(=O)c2ccccc2C1=O`: the T/C (dose: 60.0 mg/kg/injection, schedule: Q01DX005 (ip), vehicle: saline with Tween-80) was 96 % of control; the T/C (dose: 120.0 mg/kg/injection, schedule: Q01DX005 (ip), vehicle: saline with Tween-80) is 107 % of control; the T/C (dose: 240.0 mg/kg/injection, schedule: Q01DX005 (ip), vehicle: saline with Tween-80) was 112 % of control.
In the case of `CCN(CC)C(=O)c1nc(-c2cccc3ccccc23)no1`, the T/C is, setting by setting: (dose: 50.0 mg/kg/injection, schedule: Q01DX009 (ip), vehicle: Klucel (hydroxypropylcellulose) (HPC)) 100 % of control; (dose: 100.0 mg/kg/injection, schedule: Q01DX009 (ip), vehicle: Klucel (hydroxypropylcellulose) (HPC)) 97 % of control; (dose: 200.0 mg/kg/injection, schedule: Q01DX009 (ip), vehicle: Klucel (hydroxypropylcellulose) (HPC)) 98 % of control.
For `CCC(C)C(NC(=O)OC(C)(C)C)C(=O)O` (stereo unspecified), the T/C reads like this: (dose: 50.0 mg/kg/injection, schedule: Q01DX005 (ip), vehicle: Klucel (hydroxypropylcellulose) (HPC)) 103 % of control; (dose: 100.0 mg/kg/injection, schedule: Q01DX005 (ip), vehicle: Klucel (hydroxypropylcellulose) (HPC)) 100 % of control; (dose: 200.0 mg/kg/injection, schedule: Q01DX005 (ip), vehicle: Klucel (hydroxypropylcellulose) (HPC)) 100 % of control.
Consider `CC1(C)CC2C3=CCC4C5(C)CCC(O)C(C)(C)C5CCC4(C)C3(C)CC(O)C2(CO)C(O)C1O` (stereo unspecified), for which the T/C was 99 % of control (dose: 3.5 mg/kg/injection, schedule: Q01DX005 (ip), vehicle: Klucel (hydroxypropylcellulose) (HPC)); 99 % of control (dose: 7.0 mg/kg/injection, schedule: Q01DX005 (ip), vehicle: Klucel (hydroxypropylcellulose) (HPC)); 95 % of control (dose: 14.0 mg/kg/injection, schedule: Q01DX005 (ip), vehicle: Klucel (hydroxypropylcellulose) (HPC)); 96 % of control (dose: 28.0 mg/kg/injection, schedule: Q01DX005 (ip), vehicle: Klucel (hydroxypropylcellulose) (HPC)).
On to `Cn1nnc2c1C(=O)c1ccccc1C2=O`, for which the T/C reads like this: (dose: 50.0 mg/kg/injection, schedule: Q01DX009 (ip), vehicle: saline with Tween-80) 106 % of control; (dose: 100.0 mg/kg/injection, schedule: Q01DX009 (ip), vehicle: saline with Tween-80) 111 % of control; (dose: 200.0 mg/kg/injection, schedule: Q01DX009 (ip), vehicle: saline with Tween-80) 110 % of control.
For the compound `O=C(O)Cc1c[nH]c2c(Cl)ccc(Cl)c12`, the T/C is 101 % of control (dose: 100.0 mg/kg/injection, schedule: Q01DX001 (ip), vehicle: saline with Tween-80) and 100 % of control (dose: 200.0 mg/kg/injection, schedule: Q01DX001 (ip), vehicle: saline with Tween-80).
Regarding `S=C(N\N=C/C(/C=C/c1ccccc1)=N\NC(=S)Nc1ccc(Cl)cc1)Nc1ccc(Cl)cc1`, the T/C (dose: 400.0 mg/kg/injection, schedule: Q01DX001 (ip), vehicle: Klucel (hydroxypropylcellulose) (HPC)) is 88 % of control.
For `CC(=O)Oc1ccc(C2c3cc(OC(C)=O)c(OC(C)=O)cc3CC3C(=O)OCC32)cc1OC(C)=O` (stereo unspecified), the T/C runs as follows: (dose: 50.0 mg/kg/injection, schedule: Q01DX005 (ip), vehicle: distilled water + alcohol) 102 % of control; (dose: 100.0 mg/kg/injection, schedule: Q01DX005 (ip), vehicle: distilled water + alcohol) 96 % of control; (dose: 200.0 mg/kg/injection, schedule: Q01DX005 (ip), vehicle: distilled water + alcohol) 100 % of control.
For the compound `Cc1ccccc1C[P+](c1ccccc1)(c1ccccc1)c1ccccc1`, the T/C was 95 % of control (dose: 0.62 mg/kg/injection, schedule: Q01DX009 (ip), vehicle: saline with Tween-80); 100 % of control (dose: 1.25 mg/kg/injection, schedule: Q01DX009 (ip), vehicle: saline with Tween-80); 104 % of control (dose: 2.5 mg/kg/injection, schedule: Q01DX009 (ip), vehicle: saline with Tween-80); 117 % of control (dose: 5.0 mg/kg/injection, schedule: Q01DX009 (ip), vehicle: saline with Tween-80); 100 % of control (dose: 5.0 mg/kg/injection, schedule: Q04DX003 (ip), vehicle: saline with Tween-80); 95 % of control (dose: 10.0 mg/kg/injection, schedule: Q01DX009 (ip), vehicle: saline with Tween-80). Further, for the setting “dose: 10.0 mg/kg/injection, schedule: Q04DX003 (ip), vehicle: saline with Tween-80”, the T/C is 87 % of control.
Regarding `Cc1cc2nc3ccc(N(C)C)cc3nc2cc1N`, the T/C is, setting by setting: (dose: 12.5 mg/kg/injection, schedule: Q01DX005 (ip), vehicle: saline) 96 % of control; (dose: 25.0 mg/kg/injection, schedule: Q01DX005 (ip), vehicle: saline) 100 % of control; (dose: 50.0 mg/kg/injection, schedule: Q01DX005 (ip), vehicle: saline with Tween-80) 95 % of control; under setting [1], 112 % of control.
Turning to `COc1cccc2c1C(=O)c1c(O)c3c(c(O)c1C2=O)C[C@@](O)(/C(C)=N/NC(=O)c1cccc([N+](=O)[O-])c1)C[C@@H]3OC1CC(N)C(O)C(C)O1` (stereo partly specified), the T/C (dose: 0.5 mg/kg/injection, schedule: Q01DX009 (ip), vehicle: water) was 152 % of control; the T/C (dose: 1.0 mg/kg/injection, schedule: Q01DX009 (ip), vehicle: water) was 155 % of control; the T/C (dose: 1.0 mg/kg/injection, schedule: Q04DX003 (ip), vehicle: saline) is 100 % of control and 112 % of control; the T/C (dose: 1.56 mg/kg/injection, schedule: Q04DX003 (ip), vehicle: water) was 106 % of control; the T/C (dose: 2.0 mg/kg/injection, schedule: Q01DX009 (ip), vehicle: water) is 172 % of control and 179 % of control; the T/C (dose: 2.0 mg/kg/injection, schedule: Q04DX003 (ip), vehicle: saline) was 100 % of control and 115 % of control. For the same compound, the T/C is, setting by setting: (dose: 3.13 mg/kg/injection, schedule: Q04DX003 (ip), vehicle: water) 112 % of control and 117 % of control; (dose: 4.0 mg/kg/injection, schedule: Q01DX009 (ip), vehicle: water) 190 % of control and 200 % of control; (dose: 4.0 mg/kg/injection, schedule: Q04DX003 (ip), vehicle: saline) 113 % of control and 122 % of control; (dose: 5.0 mg/kg/injection, schedule: Q01DX001 (ip), vehicle: water) 167 % of control; (dose: 6.25 mg/kg/injection, schedule: Q04DX003 (ip), vehicle: water) 114 % of control and 122 % of control; (dose: 8.0 mg/kg/injection, schedule: Q01DX009 (ip), vehicle: water) 123 % of control and 202 % of control. The T/C is, setting by setting: (dose: 8.0 mg/kg/injection, schedule: Q04DX003 (ip), vehicle: saline) 112 % of control and 115 % of control and 95 % of control; (dose: 10.0 mg/kg/injection, schedule: Q01DX001 (ip), vehicle: water) 186 % of control; (dose: 16.0 mg/kg/injection, schedule: Q04DX003 (ip), vehicle: saline) 110 % of control and 115 % of control and 123 % of control; (dose: 25.0 mg/kg/injection, schedule: Q04DX003 (ip), vehicle: water) 168 % of control; (dose: 32.0 mg/kg/injection, schedule: Q04DX003 (ip), vehicle: saline) 118 % of control; (dose: 64.0 mg/kg/injection, schedule: Q04DX003 (ip), vehicle: saline) 174 % of control. In addition, the T/C runs as follows: (dose: 100.0 mg/kg/injection, schedule: Q04DX003 (ip), vehicle: water) 114 % of control; (dose: 512.0 mg/kg/injection, schedule: Q04DX003 (ip), vehicle: saline) 92 % of control; (dose: 1024.0 mg/kg/injection, schedule: Q04DX003 (ip), vehicle: saline) 93 % of control; (dose: 2048.0 mg/kg/injection, schedule: Q04DX003 (ip), vehicle: saline) 90 % of control.
